The results in this text go back to patent US20120196853A1, “Novel Quinoline-Hepcidine Antagonists” (VIFOR (INTERNATIONAL) AG, priority 2009, published 2012).

By IC50 is commonly meant the concentration needed to halve the response being measured. Lower therefore signals inhibition by little substance.

For the test, the target named is T1, human ferroportin (Fpn-HaloTag fusion protein) (Homo sapiens, UniProt Q9NP59).
T1 construct: expressed in transfected cells
T1 sequence (Q9NP59 1-571): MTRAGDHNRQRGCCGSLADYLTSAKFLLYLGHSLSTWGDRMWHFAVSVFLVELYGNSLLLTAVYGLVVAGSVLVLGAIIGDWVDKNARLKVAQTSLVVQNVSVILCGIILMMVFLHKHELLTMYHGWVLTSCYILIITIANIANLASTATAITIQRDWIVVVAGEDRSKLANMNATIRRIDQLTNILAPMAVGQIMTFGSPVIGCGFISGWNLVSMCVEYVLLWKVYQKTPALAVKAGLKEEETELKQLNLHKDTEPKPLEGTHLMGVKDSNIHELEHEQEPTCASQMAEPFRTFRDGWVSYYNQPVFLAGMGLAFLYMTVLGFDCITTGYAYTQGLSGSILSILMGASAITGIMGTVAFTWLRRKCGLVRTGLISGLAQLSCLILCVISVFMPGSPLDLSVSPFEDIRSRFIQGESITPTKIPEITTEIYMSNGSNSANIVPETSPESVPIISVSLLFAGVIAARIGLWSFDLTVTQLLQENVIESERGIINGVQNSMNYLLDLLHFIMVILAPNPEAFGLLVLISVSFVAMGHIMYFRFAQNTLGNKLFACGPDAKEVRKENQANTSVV
As to the kind of experiment: ferroportin internalization assay (inhibition of hepcidin-induced internalization of Fpn, MDCK-FPN-HaloTag cells). The test is classed as cell-based. The following applies: for IC50: 100 nM hepcidin, overnight, dilution series 0.04 to 40 μM; for I [%] (median inhibition [%] at 10 μM substance conc.): hepcidin-induced Fpn internalization. On the procedure:
The hepcidin-antagonistic action of the quinoline compounds of the present invention was determined by means of the “ferroportin internalization assay” described in the following.
Organic compounds of low molecular weight which counteract the biological actions of hepcidin on its receptor, the iron exporter ferroportin (Fpn), were identified on the basis of their ability to inhibit hepcidin-induced internalization of Fpn in living cells. For this purpose, a stable cell line (Madin-Darby canine kidney, MDCK) was produced which constitutively expresses human ferroportin fused recombinantly at its C terminus with a fluorescent reporter protein (HaloTag®, Promega Corp.). The internalization of Fpn was monitored by labelling these cells with fluorescent ligands (HaloTag®-TMR, tetramethylrhodamine) which join covalently on to the HaloTag reporter gene fused with the Fpn. […] Optimized image analysis algorithms were used to ascertain the cell surface and to quantify the corresponding membrane fluorescence associated with the Fpn-HaloTag fusion protein. This assay allows a quantitative image-based analysis in order to quickly evaluate compounds which can block hepcidin-induced internalization of Fpn. This assay is a direct in vitro pendant of the in vivo action mechanism proposed for medicament candidates and is therefore suitable as an initial assay with a high throughput for identifying compounds which counteract the action of hepcidin on its receptor ferroportin.
• 7,500 cells per well (MDCK-FPN-HaloTag) were transinoculated in 50 μl DMEM medium (Dulbeccos modified Eagle medium with 10% foetal bovine serum (FBS), which contained 1% penicillin, 1% streptomycin and 450 μg/ml of G-418) in microtitre plates with 384 wells, (384 Cell carrier plates, Perkin Elmer, cat. no. 6007430), followed by incubation overnight at 37° C./5% CO2. • The volume of the medium was reduced to 10 μl, and 10 μl of 5 μM HaloTag-TMR ligands (Promega, cat. no. G 8251) were added in DMEM medium in order to stain the Fpn-HaloTag fusion protein. • 15 min incubation at 37° C./5% CO2 • The HaloTag-TMR ligand was removed and the cells were washed with fresh DMEM medium and the volume was reduced to 20 μl of DMEM medium. • 3 μl per well of a solution of the test compound (dissolved DMSO) were added ([…]). • 7 μl of […] hepcidin (Peptides International, cat. no. PLP-4392-s, 100 μM stock solution diluted in water in DMEM medium) were added per well up to a final hepcidin concentration of 100 nM. • The cells were incubated overnight at 37° C./5% CO2. • The cells were fixed by adding paraformaldehyde (PFA, Electron Microscopy Sciences, cat. no. 15710-S) directly to the cells up to a final concentration of 4%, followed by incubation at room temperature for 15-20 minutes. • The PFA solution was removed and the cells were washed with PBS (phosphate-buffered saline solution), in each case 30 μl remaining in the plate. • 20 μl of Draq5 (Biostatus, cat. no. DR 51000) were added up to a final concentration of 2.5 μM in order to stain the cell nuclei, and the plates were sealed with a foil plate seal. • The plates were analysed with the Opera Plate Imager (Opera Confocal Plate Imager, Perkin Elmer) with 7 images per well; 440 ms exposure time per image, […] focal point height.

For the compound `Oc1c(C(c2ccccn2)N2CCOCC2)ccc2cccnc12` (stereo not drawn) [Example 1, 7-(Morpholin-4-yl-pyridin-2-yl-methyl)-quinolin-8-ol], the IC50 is below 50 µM and the “I [%] (median inhibition [%] at 10 μM substance conc.)” value is above 50%.

Regarding `Oc1c(C(c2ccc(Cl)cc2)N2CCOCC2)cc(Cl)c2cccnc12` (stereo not drawn) [Example 2, 5-Chloro-7-[(4-chloro-phenyl)-morpholin-4-yl-methyl]-quinolin-8-ol], the IC50 was below 50 µM and the “I [%] (median inhibition [%] at 10 μM substance conc.)” value is below 50%.

For `O=C(Oc1c(CN2CCOCC2)cc(Cl)c2cccnc12)c1ccco1` [Example 3, Furan-2-carboxylic acid 5-chloro-7-morpholin-4-ylmethyl-quinolin-8-yl ester], the IC50 is below 50 µM and the “I [%] (median inhibition [%] at 10 μM substance conc.)” value is recorded as below 50%.

Turning to `COc1cc(C(=O)Oc2c(CN3CCOCC3)cc(Cl)c3cccnc23)cc(OC)c1OC` [Example 4, 3,4,5-Trimethoxy-benzoic acid 5-chloro-7-morpholin-4-ylmethyl-quinolin-8-yl ester], the IC50 is below 50 µM and the “I [%] (median inhibition [%] at 10 μM substance conc.)” value is listed as below 50%.

Take `O=C(Oc1c(CN2CCOCC2)cc(Cl)c2cccnc12)c1ccccc1` [Example 5, Benzoic acid 5-chloro-7-morpholin-4-ylmethyl-quinolin-8-yl ester]: the IC50 was below 50 µM and the “I [%] (median inhibition [%] at 10 μM substance conc.)” value is on record as below 50%.

Turning to `Oc1c(C(Nc2ccccn2)c2cccnc2)cc(Cl)c2cccnc12` (stereo not drawn) [Example 6, 5-Chloro-7-[pyridin-3-yl-(pyridin-2-ylamino)-methyl]-quinolin-8-ol], the IC50 was below 50 µM and the “I [%] (median inhibition [%] at 10 μM substance conc.)” value is on record as below 50%.

Regarding `Oc1c(C(c2ccccn2)N2CCC(Cc3ccccc3)CC2)ccc2cccnc12` (stereo not drawn) [Example 7, 7-[(4-Benzyl-piperidin-1-yl)-pyridin-2-yl-methyl]-quinolin-8-ol], the IC50 was below 50 µM.

For the compound `OCCN1CCN(C(c2ccccn2)c2ccc3cccnc3c2O)CC1` (stereo not drawn) [Example 8], the IC50 was below 50 µM.

Regarding `Cc1ccc(C(c2ccc3cccnc3c2O)N2CCOCC2)cc1` (stereo not drawn) [Example 9, 7-(Morpholin-4-yl-p-tolyl-methyl)-quinolin-8-ol], the IC50 is below 50 µM.

The compound `N#Cc1ccc(C(c2ccc3cccnc3c2O)N2CCOCC2)cc1` (stereo not drawn) [Example 10, 4-[(8-Hydroxy-quinolin-7-yl)-morpholin-4-yl-methyl]-benzonitrile] registered an IC50 below 50 µM.

Compound `COc1ccc(C(c2ccc3cccnc3c2O)N2CCOCC2)cn1` (stereo not drawn) [Example 11, 7-[(6-Methoxy-pyridin-3-yl)-morpholin-4-yl-methyl]-quinolin-8-ol] returned an IC50 below 50 µM.

As for `Cc1ccccc1C(c1ccc2cccnc2c1O)N1CCOCC1` (stereo not drawn) [Example 12, 7-(Morpholin-4-yl-o-tolyl-methyl)-quinolin-8-ol], the IC50 was below 50 µM.

For the compound `Oc1c(C(c2ccccc2Cl)N2CCOCC2)ccc2cccnc12` (stereo not drawn) [Example 13, 7-[(2-Chloro-phenyl)-morpholin-4-yl-methyl]-quinolin-8-ol], the IC50 was below 50 µM.

The compound `COc1ccccc1C(c1ccc2cccnc2c1O)N1CCOCC1` (stereo not drawn) [Example 14, 7-[(2-Methoxy-phenyl)-morpholin-4-yl-methyl]-quinolin-8-ol] registered a concentration for half-maximal inhibition (IC50) below 50 µM.

Consider `Oc1c(C(c2cnccn2)N2CCOCC2)ccc2cccnc12` (stereo not drawn) [Example 15, 7-(Morpholin-4-yl-pyrazin-2-yl-methyl)-quinolin-8-ol], for which the IC50 was below 50 µM.

`Oc1c(C(c2nccn2Cc2ccccc2)N2CCOCC2)ccc2cccnc12` (stereo not drawn) [Example 16] showed an IC50 below 50 µM.

As for `Oc1c(C(NCc2ccccc2)c2ccncc2)ccc2cccnc12` (stereo not drawn) [Example 17, 7-(Benzylamino-pyridin-4-yl-methyl)-quinolin-8-ol], the IC50 is below 50 µM.

For the compound `CC1CN(C(c2ccncc2)c2ccc3cccnc3c2O)CC(C)O1` (stereo not drawn) [Example 18, 7-[(2,6-Dimethyl-morpholin-4-yl)-pyridin-4-yl-methyl]-quinolin-8-ol], the IC50 is below 50 µM.
